{"source": "patent US4335112A", "about": "“Method of treating mites in poultry” (priority 1981, dated 1982)", "key": {"mites [1]": {"system": "mites", "assay": "Control and elimination of mites in poultry flocks by bacitracin feed supplement (general finding)", "assay_type": "in vivo", "text": "This unique use is for the control and elimination of mites in poultry flocks."}, "mites [2]": {"system": "mites", "assay": "Treatment of mite-infested chicken flock with zinc bacitracin in the feed", "assay_type": "in vivo", "text": "The following example is offered to illustrate the manner in which the zinc bacitracin is used and the efficiency which it has realized. A flock of 10,000 Babcock chickens of an approximate age of 9-10 months, weighing approximately 3 pounds became heavily infested with mites. […] Ten months later the same flock again became mite infested."}}, "note": "Where a SMILES comes first, the peptide text is derived from it. Bridges are numbered along the chain shown (N, C = ends). [ ]: non-standard residue; d: D form. The star is where a group is joined. Ileψ(thiazoline)Cys = CC[C@H](C)[C@H](N)C1=N[C@H](C(=O)*)CS1; dOrn = NCCC[C@@H](N)C(=O)O", "data": [{"compound": "CC[C@H](C)[C@H](N)C1=N[C@H](C(=O)N[C@@H](CC(C)C)C(=O)N[C@H](CCC(=O)O)C(=O)N[C@H](C(=O)N[C@H]2CCCCNC(=O)[C@H](CC(N)=O)NC(=O)[C@@H](CC(=O)O)NC(=O)[C@H](Cc3cnc[nH]3)NC(=O)[C@@H](Cc3ccccc3)NC(=O)[C@H]([C@@H](C)CC)NC(=O)[C@@H](CCCN)NC2=O)[C@@H](C)CC)CS1", "note": "[bacitracin] ({Ileψ(thiazoline)Cys}-L[dE]IK[dOrn]I[dF]H[dD]N; lactam 4-C)", "values": [{"measurement": "toxicity to mites", "setting": "mites [1]; applicant's discovery, no details", "result": "toxic to mites"}, {"measurement": "elimination of mites from infested poultry flock", "setting": "mites [1]; between 100 and 200 grams of bacitracin per ton of poultry grain for several days", "result": "substantially eliminate mites"}]}, {"compound": "zinc bacitracin", "values": [{"measurement": "disappearance of mites from infested flock", "setting": "mites [2]; flock of 10,000 Babcock chickens, 9-10 months old, heavily infested, 100 grams per ton in normal feed for seven days", "result": "substantially all of the mites had disappeared"}, {"measurement": "effect of same treatment on re-infestation", "setting": "mites [2]; same flock again mite infested ten months later, same treatment (100 grams per ton feed, seven days)", "result": "same effective results"}]}]}
